Entries after “also recorded” stand apart in the source; their conditions may differ.
Columns and labels:
osteoclasts = assay: Initial study of osteoclastic and osteoblastic activity on exposure to doxycycline; assay type: cell-based; settings: exposed to doxycycline
From the text: Doxycycline bonds to internal and external calcium ions causing osteoclasts to detach from the bone, thus decreasing or stopping bone loss. […] The stoppage of bone loss and the maintenance of bone regeneration results in a net gain of new bone over time as long as the doxycycline is continually delivered to the bone/tissue interface with the currently disclosed method.

alveolar bone = assay: Clinical cases: topical tray delivery to the periodontal pocket, alveolar bone and gingival tissue regrowth; assay type: in vivo, patient
From the text: (§1) One exemplary method will now be described. An initial examination determines the conditions of the patient's periodontal disease. Models of the patient along with their periodontal probing is forwarded to a laboratory registered to make the custom formed medical device (Perio Tray), which is capable of delivering about 1.7% hydrogen peroxide gel (Perio Gel) to the diseased tissue. […] The depth of the biofilm and the tissue damage that exist determines the frequency and duration of usage. Patients with severe tissue damage (6 mm or greater) use the Perio Tray about 4 times a day. Patients with moderate damage (3 mm to 6 mm) use the Perio Tray about 3 times a day and patients maintain their health using the trays once or twice a day for about 15 minutes.
After the photographs of FIGS. 12A, 14A, 16A, and 18A were taken in 2004, the patient began a treatment as described above that included regular direct/topical medication delivery to the a to the gingival sulcus and/or periodontal pocket 37 in 2004 delivering doxycycline subgingival and interproximal with the medicament delivery tray.
The fact teeth appear longer as we age is supported in the literature. This is explained as a greater action of osteoclasts as compared to the cellular activity of osteoblasts with a resultant decrease in alveolar bone 40B around the patient's teeth 10 with an accompanying loss of gingival tissue 24B appearing as receding gum tissue 24B and the exposure of a greater root surface making the teeth 10 appear longer.

oral biofilm = assay: Penetration and eradication of oral biofilm by hydrogen peroxide gel
From the text: as §1

[1] = oxygen delivered directly to the tissues

Compound | formation of new osteoclasts from osteoclastic precursor cells (osteoclasts) | osteoblastic activity (osteoclasts) | osteoclastic activity (osteoclasts) | tooth mobility (alveolar bone; case studies, direct delivery to the periodontal pocket) | formation of new osteoclasts by precursor cells (alveolar bone; clinic tests) | bone loss and bone regeneration (alveolar bone; delivery to gingival sulcus or periodontal pocket) | attachment of osteoclasts to bone (alveolar bone; lengthy clinic tests) | cellular activity of osteoblasts (alveolar bone; lengthy clinic tests) | alveolar bone (radiographs) (alveolar bone; patient treated 1976 to 2012, hydrogen peroxide and topically applied doxycycline) | kill of biofilm bacteria (oral biofilm) [%] | eradication of biofilm bacteria (biofilm bacteria; in 14 to 17 days) [%] | time to bring to an end the facultative anaerobes (biofilm bacteria; [1]) [days] | time to kill the obligate anaerobes (biofilm bacteria; [1]) [days]
C[C@H]1c2cccc(O)c2C(=O)C2=C(O)[C@]3(O)C(=O)C(C(N)=O)=C(O)[C@@H](N(C)C)[C@@H]3[C@@H](O)[C@@H]21 [doxycycline] | completely abrogated | augmentation | decrease | decrease | completely stopped; also recorded: completely abrogates | stops bone loss and augments bone regeneration | inhibit | maintain or increase | regrown and increased | – | – | – | –
OO [hydrogen peroxide] | – | – | – | – | – | – | – | – | – | 99.999 | 99.98 | 7 | 2
